# Assay results published in patent US20250332173A1, “COMPOUNDS AND METHODS FOR MODULATING NUCLEIC ACID SPLICING” (REMIX THERAPEUTICS INC., priority 2021, published 2025).
# Read-outs that look alike come from different tables or passages of the source.
# What was measured:
# HTT mRNA = test: RT-qPCR splicing assay, HTT canonical junction (CJ) and alternative junction (AJ) mRNA; type: cell-based, human; conditions: Homo sapiens; for AC50: increase in HTT alternative junction (AJ) mRNA, read-out: HTT AJ AC50
# Experimental: (§1) The expression of a target mRNA was measured by detecting the formation of an exon-exon junction in the canonical transcript (CJ). A compound mediated exon-inclusion event was detected by observing an increase in formation of a new junction with an alternative exon (AJ). Real-time qPCR assays were used to detect these splicing switches and interrogate the potency of various compounds towards different target genes. A high-throughput real time quantitative PCR (RT-qPCR) assay was developed to measure these two isoforms of the mRNA (CJ and AJ) for exemplary genes, such as HTT, SMN2, and MYB, together with a control housekeeping gene, GAPDH or GUSB or PPIA, used for normalization. Briefly, the A673 or K562 cell line was treated with various compounds described herein (e.g., compounds of Formula (I)). After treatment, the levels of the HTT, MYB, or SMN2 mRNA targets were determined from each sample of cell lysate by cDNA synthesis followed by qPCR.
# (§2) • Cells-to-CT 1-step kit: ThermoFisher A25602, Cells-to-CT lysis reagent: ThermoFisher 4391851C, TaqMan™ Fast Virus 1-Step Master Mix: ThermoFisher 4444436 • GAPDH: VIC-PL, ThermoFisher 4326317E (Assay: Hs99999905_m1)—used for K562/suspension cell lines • GUSB: VIC-PL, ThermoFisher 4326320E (Assay: Hs99999908_m1)—used for K562/suspension cell lines • PPIA: VIC-PL, ThermoFisher 4326316E (Assay: Hs99999904_m1)—used for A673/adherent cell lines
# (§3) The A673 cell line was cultured in DMEM with 10% FBS. Cells were diluted with full growth media and plated in a 96-well plate (15,000 cells in 100 ul media per well). The plate was incubated at 37° C. with 5% CO2 for 24 hours to allow cells to adhere. An 11-point 3-fold serial dilution of the compounds was made in DMSO then diluted in media in an intermediate plate. Compounds were transferred from the intermediate plate to the cell plate with the top dose at a final concentration of 10 uM in the well. Final DMSO concentration was kept at or below 0.25%. The cell plate was returned to the incubator at 37° C. with 5% CO2 for an additional 24 hours.
# (§4) The K562 cell line was cultured in IMDM with 10% FBS. For K562, cells were diluted with full growth media and plated in either a 96-well plate (50,000 cells in 50 uL media per well) or a 384-well plate (8,000-40,000 cells in 45 uL media per well). An 11-point 3-fold serial dilution of the compounds were made in DMSO then diluted in media in an intermediate plate. Compound was transferred from the intermediate plate to the cell plate with the top dose at a final concentration of 10 uM in the well. Final DMSO concentration was kept at or below 0.25%. Final volume was 100 uL for 96-well plate and 50 uL for 384-well plate. The cell plate was then placed in an incubator at 37° C. with 5% CO2 for 24 hours.
# (§5) The cells were then gently washed with 50 uL-100 uL cold PBS before proceeding to addition of lysis buffer. 30 uL-50 uL of room temperature lysis buffer with DNAse I (and optionally RNAsin) was added to each well. Cells were shaken/mixed thoroughly at room temperature for 5-10 minutes for lysis to take place and then 3 uL-5 uL of room temperature stop solution was added and wells were shaken/mixed again. After 2-5 minutes, the cell lysate plate was transferred to ice for RT-qPCR reaction setup. The lysates could also be frozen at −80° C. for later use.
# (§6) In some cases, a direct lysis buffer was used. An appropriate volume of 3× lysis buffer (10 mM Tris, 150 mM NaCl, 1.5%-2.5% Igepal and 0.1-1 U/uL RNAsin, pH 7.4) was directly added to either K562 or A673 cells in media and mixed by pipetting 3 times. The plates were then incubated at room temperature with shaking/rocking for 20-50 minutes to allow for lysis to take place. After this time, the cell lysate plate was transferred to ice to set up for the RT-qPCR reactions. The lysates could also be frozen at −80° C. for later use.
# SMN2 mRNA = test: RT-qPCR splicing assay, SMN2 canonical junction (CJ) mRNA; type: cell-based, human; conditions: Homo sapiens; Table 5 panel; canonical junction qPCR; compound concentration having 50% response in CJ decrease; read-out: SMN2 IC50 (decrease in CJ mRNA levels)
# Experimental: as §1, §3, §4, §5, §6
# (§7) To set up 10 uL RT-qPCR reactions, cell lysates were transferred to 384-well qPCR plates containing the master mix according to the table below. The plates were sealed, gently vortexed, and spun down before the run. The volumes were adjusted accordingly in some instances where the reaction was carried in 20 uL. The table below summarizes the components of the RT-qPCR reactions:
# (§8) The RT-qPCR reaction was performed using a QuantStudio (ThermoFisher) under the following fast cycling conditions.
# MYB mRNA = test: RT-qPCR splicing assay, MYB canonical junction (CJ) and alternative junction (AJ) mRNA; type: cell-based, human; conditions: Homo sapiens; for AC50: increase in MYB alternative junction (AJ) mRNA, read-out: MYB AJ AC50
# Experimental: as §1, §2, §3, §4, §5, §6
# Target C = test: RT-qPCR splicing assay panel, Target C canonical junction (CJ) mRNA; type: cell-based, human; conditions: Homo sapiens
# Experimental: as §1, §3, §4, §5, §6, §7, §8
# [1] = system: K562 (human chronic myelogenous leukemia) cells; test: Cell Titer Glo 2.0 cell viability assay; type: cell-based; conditions: Homo sapiens, K562, 72 h, K562 cells, 72 hours, Cell Titer Glo 2.0; read-out: K562 GI50
# [2] = decrease in HTT canonical junction (CJ) mRNA, RT-qPCR, read-out: HTT CJ IC50
# [3] = Table 5 panel, canonical junction qPCR, compound concentration having 50% response in CJ decrease, read-out: HTT IC50 (decrease in CJ mRNA levels)
# [4] = decrease in MYB canonical junction (CJ) mRNA, RT-qPCR, read-out: MYB CJ IC50
# [5] = Table 5 panel, canonical junction qPCR, compound concentration having 50% response in CJ decrease, read-out: Target C IC50 (decrease in CJ mRNA levels)
# [6] = canonical junction qPCR panel, Table 5, read-out: HTT (decrease in CJ mRNA levels, IC50)
# [7] = canonical junction qPCR panel, Table 5, read-out: MYB (decrease in CJ mRNA levels, IC50)
# [8] = canonical junction qPCR panel, Table 5, read-out: Target C (decrease in CJ mRNA levels, IC50)
IC50 (HTT mRNA; [2]),IC50 (HTT mRNA; [3]),IC50 (SMN2 mRNA),"IC50 (MYB mRNA; Table 5 panel, canonical junction qPCR, compound concentration having 50% response in CJ decrease, read-out: MYB IC50 (decrease in CJ mRNA levels))",IC50 (MYB mRNA; [4]),IC50 (Target C; [5]),IC50 (HTT mRNA; [6]),IC50 (MYB mRNA; [7]),IC50 (Target C; [8]),GI50 [1],SMILES,AC50 (HTT mRNA; RT-qPCR),AC50 (MYB mRNA; RT-qPCR)
> 10 µM,> 10 µM,0.1 to 1 µM,–,–,–,–,–,–,–,Cc1cc(-c2ccc3nc(N4CCN(C)CC4)[nH]c(=O)c3c2)cc2cn(C)nc12 [Compound 165],> 10 µM,–
1 to 10 µM,0.1 to 1 µM,0.1 to 1 µM,1 to 10 µM,1 to 10 µM,–,–,–,–,–,Cc1cn2nc(-c3ccc4c(c3)CCN(C3CCNCC3)C4=O)cc(C)c2n1 [Compound 185],0.1 to 1 µM,1 to 10 µM
> 10 µM,–,–,–,–,–,–,–,–,–,Cc1cn2cc(-c3ccc4c(=O)n(C5CCNCC5)ncc4c3)nc2c(C)n1 [Compound 258],1 to 10 µM,–
0.1 to 1 µM,< 0.1 µM,–,–,–,0.1 to 1 µM,–,–,–,–,Cc1cn2nc(-c3ccc4c(=O)n([C@H]5CCN[C@H](C)C5)ncc4c3)cc(C)c2n1 [Compound 273],< 0.1 µM,–
–,> 10 µM,–,–,–,> 10 µM,–,–,–,–,Cc1cn2nc(-c3ccc4c(=O)n(C5CCOCC5)ncc4c3)cc(C)c2n1 [Compound 275],–,–
1 to 10 µM,0.1 to 1 µM,–,–,–,0.1 to 1 µM,–,–,–,–,CC[C@@H]1C[C@@H](n2ncc3cc(-c4cc(C)c5nc(C)cn5n4)ccc3c2=O)CCN1 [Compound 305],0.1 to 1 µM,–
0.1 to 1 µM,–,–,–,0.1 to 1 µM,–,0.1 to 1 µM,0.1 to 1 µM,0.1 to 1 µM,1 to 10 µM,"Cc1cn2nc(-c3ccc4c(=O)n([C@@H]5CCNC6(CC6)C5)ccc4n3)cc(C)c2n1 [Compound 1505, 6-[(7R)-4-azaspiro[2.5]octan-7-yl]-2-(2,8-dimethylimidazo[1,2-b]pyridazin-6-yl)-1,6-naphthyridin-5-one]",0.1 to 1 µM,0.1 to 1 µM
< 0.1 µM,–,–,–,< 0.1 µM,–,< 0.1 µM,0.1 to 1 µM,0.1 to 1 µM,0.1 to 1 µM,"Cc1cn2nc(-c3ccc4c(=O)n([C@H]5CCNC6(CC6)C5)ccc4n3)cc(C)c2n1 [Compound 1506, 6-[(7S)-4-azaspiro[2.5]octan-7-yl]-2-(2,8-dimethylimidazo[1,2-b]pyridazin-6-yl)-1,6-naphthyridin-5-one]",< 0.1 µM,0.1 to 1 µM
0.1 to 1 µM,–,–,–,0.1 to 1 µM,–,0.1 to 1 µM,0.1 to 1 µM,1 to 10 µM,0.1 to 1 µM,C[C@H]1C[C@@H](n2ccc3nc(-c4cc(F)c5nn(C)cc5c4)ccc3c2=O)CCN1 [Compound 1507],0.1 to 1 µM,0.1 to 1 µM
< 0.1 µM,–,–,–,< 0.1 µM,–,< 0.1 µM,< 0.1 µM,< 0.1 µM,< 0.1 µM,"Cc1c(O)c(-c2ccc3c(=O)n([C@H]4CCNC5(CC5)C4)ccc3n2)cc2cn(C)nc12 [Compound 1508, 6-[(7S)-4-azaspiro[2.5]octan-7-yl]-2-(6-hydroxy-2,7-dimethyl-indazol-5-yl)-1,6-naphthyridin-5-one]",< 0.1 µM,< 0.1 µM
0.1 to 1 µM,–,–,–,0.1 to 1 µM,–,0.1 to 1 µM,< 0.1 µM,0.1 to 1 µM,0.1 to 1 µM,"Cc1c(O)c(-c2ccc3c(=O)n([C@@H]4CCNC5(CC5)C4)ccc3n2)cc2cn(C)nc12 [Compound 1509, 6-[(7R)-4-azaspiro[2.5]octan-7-yl]-2-(6-hydroxy-2,7-dimethyl-indazol-5-yl)-1,6-naphthyridin-5-one]",0.1 to 1 µM,< 0.1 µM
1 to 10 µM,–,–,–,1 to 10 µM,–,0.1 to 1 µM,0.1 to 1 µM,1 to 10 µM,0.1 to 1 µM,Cc1cn2cc(-c3ccc4c(=O)n([C@@H]5CCNC6(CC6)C5)ccc4n3)cc(F)c2n1 [Compound 1510],0.1 to 1 µM,0.1 to 1 µM
0.1 to 1 µM,–,–,–,0.1 to 1 µM,–,0.1 to 1 µM,0.1 to 1 µM,0.1 to 1 µM,0.1 to 1 µM,Cc1cn2cc(-c3ccc4c(=O)n([C@H]5CCNC6(CC6)C5)ccc4n3)cc(F)c2n1 [Compound 1511],0.1 to 1 µM,0.1 to 1 µM
1 to 10 µM,–,–,–,0.1 to 1 µM,–,0.1 to 1 µM,0.1 to 1 µM,1 to 10 µM,0.1 to 1 µM,Cc1c(O)c(-c2ncc3c(=O)n([C@@H]4CCNC5(CC5)C4)ccc3n2)cc2cn(C)nc12 [Compound 1513],0.1 to 1 µM,0.1 to 1 µM
1 to 10 µM,–,–,–,0.1 to 1 µM,–,> 10 µM,0.1 to 1 µM,1 to 10 µM,0.1 to 1 µM,"Cc1c(O)c(-c2nc(C)c3c(=O)n([C@H]4CCNC5(CC5)C4)ccc3n2)cc2cn(C)nc12 [Compound 1514, 6-[(7S)-4-azaspiro[2.5]octan-7-yl]-2-(6-hydroxy-2,7-dimethyl-indazol-5-yl)-4-methyl-pyrido[4,3-d]pyrimidin-5-one]",> 10 µM,0.1 to 1 µM
1 to 10 µM,–,–,–,0.1 to 1 µM,–,1 to 10 µM,0.1 to 1 µM,> 10 µM,0.1 to 1 µM,Cc1c(O)c(-c2nc(C)c3c(=O)n(C4C[C@H](C)N[C@@H](C)C4)ccc3n2)cc2cn(C)nc12 (stereo partly drawn) [Compound 1516],1 to 10 µM,0.1 to 1 µM
0.1 to 1 µM,–,–,–,0.1 to 1 µM,–,0.1 to 1 µM,0.1 to 1 µM,0.1 to 1 µM,0.1 to 1 µM,"Cc1cn2nc(-c3cc(C)c4c(=O)n(C5CCNC6(CC6)C5)ncc4n3)cc(C)c2n1 (stereo not drawn) [Compound 1552, 6-(4-azaspiro[2.5]octan-7-yl)-2-(2,8-dimethylimidazo[1,2-b]pyridazin-6-yl)-4-methyl-pyrido[2,3-d]pyridazin-5-one]",0.1 to 1 µM,0.1 to 1 µM
